Data reported in ChEMBL document CHEMBL4270601, “Design and synthesis of multipotent 3-aminomethylindoles and 7-azaindoles with enhanced protein phosphatase 2A-activating profile and neuroprotection” (Eur J Med Chem, 2018).
Calls of active or inactive are those of the source. The rule behind the calls is not given here.

What was measured:
SH-SY5Y [1] = assay: Reversal of okadaic acid-mediated PP2A catalytic subunit C Ser/Thr phosphatase activity inactivation in human SH-SY5Y cells assessed as recovery of PP2A activity at 0.1 uM preincubated for 24 hrs followed by cotreatment with PPA2 inhibitor okadaic acid for 18 hrs measured over 30 mins by pNPP based spectrophotometric analysis relative to control; format: cell-based; parameters: scale not given: the % may be the effect or the level left
[2] = test system: Voltage-gated calcium channel; assay: Inhibition of voltage gated calcium channel in human SH-SY5Y cells assessed as blockade of K+-evoked calcium uptake at 1 uM pretreated for 10 mins followed by 70 mM K+ addition by Fluo-4AM dye based fluorescence assay relative to control; format: cell-based
SH-SY5Y [3] = assay: Cytotoxicity against human SH-SY5Y cells assessed as decrease in cell viability up to 30 uM after 48 hrs by MTT assay; format: cell-based
SH-SY5Y [4] = assay: Neuroprotective activity against okadaic acid-induced oxidative stress in human SH-SY5Y cells assessed as increase in cell viability at 0.1 uM preincubated for 24 hrs followed by OA addition measured after 20 hrs by MTT assay relative to control; format: functional
SH-SY5Y [5] = assay: Neuroprotective activity against cocktail of rotenone plus oligomycin A-induced oxidative stress in human SH-SY5Y cells assessed as increase in cell viability at 10 nM preincubated for 24 hrs followed by […] measured after 24 hrs by MTT assay relative to control; format: functional
SH-SY5Y [6] = assay: Reversal of okadaic acid-mediated PP2A inactivation in human SH-SY5Y cells assessed as decrease in Tau phosphorylation at Ser202/Thr205 residues at 0.1 uM after 24 hrs by Western blot method; format: cell-based
[7] = target: Voltage-dependent N-type calcium channel subunit alpha (Bos taurus) (UniProt G3X7Z2); assay: Inhibition of N-type voltage dependent calcium channel in bovine Chromaffin cells assessed as reduction in K+-induced calcium current at 1 uM after 3 mins by whole cell patch clamp electrophysiology assay; format: cell-based
Bos taurus = species on record: Bos taurus; assay: Inhibition of P/Q-type voltage dependent calcium channel in bovine Chromaffin cells assessed as reduction in K+-induced calcium current at 1 uM after 3 mins by whole cell patch clamp electrophysiology assay; format: cell-based
[8] = test system: Voltage-gated calcium channel; assay: Inhibition of voltage gated calcium channel in human SH-SY5Y cells assessed as blockade of K+-evoked calcium uptake at 3 uM pretreated for 10 mins followed by 70 mM K+ addition by Fluo-4AM dye based fluorescence assay relative to control; format: cell-based

Voltage-dependent N-type calcium channel subunit alpha (Bos taurus), sequence (G3X7Z2 as listed by the source): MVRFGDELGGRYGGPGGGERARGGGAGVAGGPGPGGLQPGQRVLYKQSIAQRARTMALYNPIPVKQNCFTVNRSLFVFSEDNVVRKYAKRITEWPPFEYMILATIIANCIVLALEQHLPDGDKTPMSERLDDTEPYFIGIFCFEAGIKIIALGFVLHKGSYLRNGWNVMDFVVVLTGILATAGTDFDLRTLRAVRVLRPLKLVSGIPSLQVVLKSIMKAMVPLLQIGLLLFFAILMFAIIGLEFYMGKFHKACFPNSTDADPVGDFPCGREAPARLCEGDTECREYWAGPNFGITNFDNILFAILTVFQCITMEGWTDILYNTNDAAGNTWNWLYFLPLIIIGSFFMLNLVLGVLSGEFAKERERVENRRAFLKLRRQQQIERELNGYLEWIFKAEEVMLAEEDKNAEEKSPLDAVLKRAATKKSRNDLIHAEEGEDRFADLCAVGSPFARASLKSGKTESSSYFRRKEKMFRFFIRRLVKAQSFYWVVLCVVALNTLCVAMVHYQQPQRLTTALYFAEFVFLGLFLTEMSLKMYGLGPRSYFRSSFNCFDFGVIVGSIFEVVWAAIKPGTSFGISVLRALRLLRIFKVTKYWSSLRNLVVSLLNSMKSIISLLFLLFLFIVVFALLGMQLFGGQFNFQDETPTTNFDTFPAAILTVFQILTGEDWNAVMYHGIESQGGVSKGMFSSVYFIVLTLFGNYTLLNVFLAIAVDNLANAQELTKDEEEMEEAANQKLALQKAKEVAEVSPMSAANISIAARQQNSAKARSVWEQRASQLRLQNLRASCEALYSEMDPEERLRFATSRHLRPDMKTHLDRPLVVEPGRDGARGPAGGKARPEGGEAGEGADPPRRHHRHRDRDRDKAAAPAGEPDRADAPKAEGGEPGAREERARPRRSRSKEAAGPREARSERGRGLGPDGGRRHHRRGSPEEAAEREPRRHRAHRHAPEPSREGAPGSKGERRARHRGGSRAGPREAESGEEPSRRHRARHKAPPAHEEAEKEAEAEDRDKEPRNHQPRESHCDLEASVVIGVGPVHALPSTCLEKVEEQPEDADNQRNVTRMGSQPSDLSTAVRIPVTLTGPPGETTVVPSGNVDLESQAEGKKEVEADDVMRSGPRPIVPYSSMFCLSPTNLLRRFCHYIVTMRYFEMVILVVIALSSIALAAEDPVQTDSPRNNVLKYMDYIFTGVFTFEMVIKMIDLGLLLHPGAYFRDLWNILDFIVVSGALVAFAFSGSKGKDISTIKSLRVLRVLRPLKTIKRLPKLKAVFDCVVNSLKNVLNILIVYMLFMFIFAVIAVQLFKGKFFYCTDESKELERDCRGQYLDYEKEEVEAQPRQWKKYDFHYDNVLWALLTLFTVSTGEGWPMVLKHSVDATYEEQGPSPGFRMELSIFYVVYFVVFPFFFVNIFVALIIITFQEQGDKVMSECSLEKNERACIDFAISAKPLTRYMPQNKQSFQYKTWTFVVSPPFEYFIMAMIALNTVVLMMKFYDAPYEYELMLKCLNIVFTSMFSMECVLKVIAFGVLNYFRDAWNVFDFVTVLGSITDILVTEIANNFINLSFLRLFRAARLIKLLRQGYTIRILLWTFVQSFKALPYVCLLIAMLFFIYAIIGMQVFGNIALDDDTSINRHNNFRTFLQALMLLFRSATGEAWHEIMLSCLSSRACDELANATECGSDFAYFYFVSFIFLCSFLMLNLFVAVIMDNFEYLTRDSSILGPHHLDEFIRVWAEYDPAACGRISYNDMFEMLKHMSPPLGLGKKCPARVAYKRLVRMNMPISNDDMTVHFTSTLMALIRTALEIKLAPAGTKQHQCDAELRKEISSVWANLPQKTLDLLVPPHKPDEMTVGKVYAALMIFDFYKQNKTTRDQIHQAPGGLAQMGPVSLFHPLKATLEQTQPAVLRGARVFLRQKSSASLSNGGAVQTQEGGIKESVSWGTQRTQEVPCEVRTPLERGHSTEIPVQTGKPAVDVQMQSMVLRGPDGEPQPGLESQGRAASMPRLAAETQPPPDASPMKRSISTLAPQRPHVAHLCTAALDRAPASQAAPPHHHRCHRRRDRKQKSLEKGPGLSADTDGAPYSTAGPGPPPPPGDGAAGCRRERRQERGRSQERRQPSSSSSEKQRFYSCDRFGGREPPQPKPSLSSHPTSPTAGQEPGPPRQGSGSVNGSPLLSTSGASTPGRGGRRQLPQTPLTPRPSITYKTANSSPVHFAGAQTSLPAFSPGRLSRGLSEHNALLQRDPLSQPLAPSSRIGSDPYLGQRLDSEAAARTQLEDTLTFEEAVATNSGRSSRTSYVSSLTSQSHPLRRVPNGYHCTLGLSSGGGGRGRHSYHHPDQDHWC

| SMILES | Activity (SH-SY5Y [1]) | inhibition (INH) [2] | Activity (SH-SY5Y [3]) | Activity (SH-SY5Y [4]) | Activity (SH-SY5Y [5]) | Activity (SH-SY5Y [6]) | inhibition [7] | inhibition (Bos taurus) | inhibition (INH) [8] |
| --- | --- | --- | --- | --- | --- | --- | --- | --- | --- |
| CCCCn1cc(CN(C)C)c2cc(Br)cnc21 | 34% | 10% | Non-Toxic | 57% | 18% | – | – | – | – |
| CN(C)Cc1cn(Cc2ccccc2)c2ccc(Cl)cc12 | 78% | 40% | Non-Toxic | 88% | 32% | Active | Active | Active | – |
| CCCCn1cc(CN(C)C)c2ccccc21 | 12% | 7% | Non-Toxic | 50% | 20% | – | – | – | – |
| CCCCn1cc(CN2CCCCC2)c2cc(Br)cnc21 | 22% | 9% | Non-Toxic | 98% | 39% | – | – | – | – |
| CCCCn1cc(CN(C)C)c2cc(Cl)ccc21 | 39% | 23% | Non-Toxic | 93% | 38% | – | – | – | – |
| C#CCn1cc(CN2CCCCC2)c2ccccc21 | 17% | 35% | Non-Toxic | 58% | 41% | – | – | – | – |
| c1ccc(Cn2cc(CN3CCCCC3)c3ccccc32)cc1 | 37% | 11% | Non-Toxic | 65% | 28% | – | – | – | – |
| C#CCn1cc(CN(C)C)c2cc(Cl)ccc21 | 23% | 18% | Non-Toxic | 43% | 26% | – | – | – | – |
| COc1cnc2c(c1)c(CN(C)C)cn2Cc1ccccc1 | 33% | 10% | Non-Toxic | 51% | 29% | – | – | – | – |
| COC(=O)C1=C(C)NC(C)=C(C(=O)OC)C1c1ccccc1[N+](=O)[O-] [NIFEDIPINE] | – | – | – | – | – | – | – | – | 40% |
| Clc1ccc2c(c1)c(CN1CCCCC1)cn2Cc1ccccc1 | 27% | 37% | Non-Toxic | 62% | 24% | – | – | – | – |
| CC12CC3CC(C)(C1)CC(N)(C3)C2 [MEMANTINE] | 28% | – | – | 63% | – | – | – | – | – |
| CCCCn1cc(CN2CCCCC2)c2cc(Cl)ccc21 | 38% | 24% | Non-Toxic | 98% | 27% | – | – | – | – |
| COc1cnc2c(c1)c(CN1CCCCC1)cn2Cc1ccccc1 | 47% | 19% | Non-Toxic | 62% | 40% | – | – | – | – |
| COc1ccc2[nH]cc(CCNC(C)=O)c2c1 [MELATONIN] | – | – | – | – | 36% | – | – | – | – |
| CN(C)Cc1cn(Cc2ccccc2)c2ncc(Br)cc12 | 21% | 46% | Non-Toxic | 84% | 32% | – | Active | Active | – |
| C#CCn1cc(CN(C)C)c2cc(Br)cnc21 | 17% | 11% | Non-Toxic | 63% | 17% | – | – | – | – |
| CN(C)Cc1cn(Cc2ccccc2)c2ccccc12 | 45% | 22% | Non-Toxic | 67% | 34% | – | – | – | – |
| CCCCn1cc(CN2CCCCC2)c2ccccc21 | 30% | 13% | Non-Toxic | 55% | 25% | – | – | – | – |
| Brc1cnc2c(c1)c(CN1CCCCC1)cn2Cc1ccccc1 | 31% | 15% | Non-Toxic | 60% | 25% | – | – | – | – |
| C#CCn1cc(CN2CCCCC2)c2cc(Br)cnc21 | 25% | 8% | Non-Toxic | 68% | 13% | – | – | – | – |
| C#CCn1cc(CN(C)C)c2ccccc21 | 59% | 3% | Non-Toxic | 75% | 32% | – | – | – | – |
| C#CCn1cc(CN2CCCCC2)c2cc(Cl)ccc21 | 44% | 32% | Non-Toxic | 55% | 16% | – | – | – | – |
